Data set [1] has as its system ABC16-Monster S. cerevisiae. Nature of the data set: microbe, parasite or virus in culture. Type of data set: cell-based. The conditions noted are these: Saccharomyces cerevisiae.
The test system of another data set is HepG2 cells. Nature of the data set: HepG2 cytotoxicity assay. Type of data set: cell-based, human. The conditions noted are these: D-amino acid at P3; comparator not given.
The subject of the next data set is Dd2 parasites. Nature of the data set: Artemisinin IC50 with proteasome inhibitor co-treatment, 72 h SYBR green assay. Type of data set: cell-based. The conditions noted are these: Plasmodium falciparum. The procedure: Compound susceptibility was measured using the malaria SYBR green I-based fluorescence assay.[39] Asynchronous P. falciparum parasites (Dd2 strain) were cultured in standard conditions before being plated for the assays. Each compound was tested over 72 h in technical duplicates on a 12-point concentration curve prepared by 3-fold dilution from 6.7 μM to 0.11 nM. At least three independent experiments were carried out for IC50 determination. Artemisinin and chloroquine were used as controls. IC50 values were obtained using normalized fluorescence intensity from SYBR green I and analyzed via nonlinear variable slope four-parameter regression curve-fitting model in Prism 6 (GraphPad Software Inc.).

Bounds are passed on as bounds.

As to `CCCCCC(=O)N[C@H](C(=O)N[C@@H](CCS(C)(=O)=O)C(=O)N[C@@H](CC(C)C)C(=O)[C@@]1(C)CO1)C(C)C` [Carmaphycin B, carmaphycin B], the IC50 – broadly, the concentration needed to halve the response being measured – in data set [1] (GM (parental ABC16-Monster strain), n=4) is 24.3 µM; in data set [1] (resistant Lineage 1), more than 150 µM; in data set [1] (resistant Lineage 2, n=4), 52.7 µM; in data set [1] (resistant Lineage 3), more than 100 µM.

Consider `CCCCCC(=O)N[C@H](Cc1c[nH]c2ccccc12)C(=O)N[C@@H](CCCC)C(=O)N[C@@H](CC(C)C)C(=O)[C@@]1(C)CO1` [analog 19], for which the fold reduced toxicity entry in the data set on HepG2 cells is listed as “up to 100 fold”.

In the case of `C[C@@H]1CC[C@H]2[C@@H](C)C(=O)O[C@@H]3O[C@@]4(C)CC[C@@H]1[C@]32OO4` [artemisinin], the IC50 with Dd2 parasites (DD2, Art + 0.5 nM Analog 18, n = 2) was 0.011 µM; in the data set on Dd2 parasites (DD2, Art + 0.5 nM CarB, n = 2) it was 0.0135 µM; with Dd2 parasites (DD2, Art + 1.0 nM Analog 18, n = 2) it was 0.0075 µM; in the data set with Dd2 parasites (DD2, Art + 1.0 nM CarB, n = 2) it was 0.007 µM; with Dd2 parasites (DD2, Art only, Figure 3B, mean ± SEM, n = 2) it was 0.0235 µM; with Dd2 parasites (DD2, Art only, Figure 3C, mean ± SEM, n = 2), 0.019 µM. Besides, the IC50 with Dd2 parasites (DD2, artemisinin alone, wild-type artemisinin-sensitive Dd2 parasites, span of both experiments) fell in the range of 0.019 to 0.0235 µM.

For the origin of these results see PMC5554889, “Development of a Potent Inhibitor of the Plasmodium Proteasome with Reduced Mammalian Toxicity” (Journal of Medicinal Chemistry, 2017).
